This assay concerns 1-st type of simple virus herpes, Kleiman strain. In words: Herpetic meningoencephalitis model in mice. The conditions noted are these: for Lethality rate / ML (mean lifespan) / Protective effect (difference between survival rates in experimental and control groups) / Survival rate: introduced 3, 24, 48, 72 and 96 h after infecting. It counts as in vivo, white mice. The procedure: Proteoglycan efficiency was estimated by means of herpetic menigeoencephalitis model in mice. The 1-st type of simple virus herpes of Kleiman strained was used. The virus infectuous titer in Vero cells culture was of 6.5-7.01 1 g CPA50^1 /0.1 ml while by intracerebral or intraperitonneal introduction in white mice mass of 7-8 g it was equal to 5.5-6.0 1 g LD50 /0.03 ml. The strain is characterized by increased neurovirulence. The maximum lesion of cells of fibroblasts in hen embryons or of Vero cells (75-100%) was already observed in 18-20 h after infecting. To reproduce herpetic meningoencephalitis in mice the latter were infected with Kleiman virus intraperitonneally in volume of 0.2 ml of both 10 and 100 LD50 doses. The treatment results were estimated as a mean lifespan (ML) and the protective effect which is difference between survival rates in experimental and control groups.
*-proteoglycan was introduced 5 days before infecting
**-proteoglycan was introduced 5 days until infecting and 3 h after the
** Acyclovir was introduced in 3, 24, 48, 72 and 96 h after the infecting.

The text below walks through data of patent US6274146A, “Biologically active phytogenous proteoglycan and a method of making thereof” (priority 1999, dated 2001).

Each structure is given as a SMILES string.

With `Nc1nc2c(ncn2COCCO)c(=O)[nH]1` [Acyclovir], under “10 LD50 virus dose”, the Lethality rate is 68%; the “ML (mean lifespan)” value is reported as 7.81 ± 1.9 days; the “Protective effect (difference between survival rates in experimental and control groups)” value is reported as 15%; the Survival rate worked out at 32%. Besides, under “100 LD50 virus dose”, the Effect observed result is on record as “no effect was observed”; the Lethality rate stood at 100%; the “ML (mean lifespan)” value was determined as 5.3 ± 1.8 days; the “Protective effect (difference between survival rates in experimental and control groups)” value was found to be 0%. The Survival rate (100 LD50 virus dose) came to 0%.
